The source of these data is EPA's ToxValDB 9.5 (doi:10.2903/j.efsa.2014.3764).

By NOAEL is commonly meant the highest dose or exposure tested at which no adverse effect was seen.

SMILES strings stand for the structures.

In one series the test system is Aphidius rhopalosiphi. Briefly: LR50; higher = less toxic. The conditions noted are these: acute; duration: 48 hours; mortality.
In the next series the test system is Tagia sp. The conditions noted are these: acute; duration: 14 days; mortality.
A further series has as its system Oncorhynchus mykiss. The conditions noted are these: chronic/long-term; duration: 87 days; mortality.
The next series has as its system Daphnia magna. The conditions noted are these: chronic/long-term; duration: 21 days; mortality.
The test system of another series is Anas platyrhynchos. The conditions noted are these: oral, feed.
For the next series, the system named is Cyprinus carpio. The conditions noted are these: acute; duration: 96 hours; mortality.
In the next series the test system is Colinus virginianus. The conditions noted are these: acute; oral; mortality.
The subject of the next series is Canidae. The conditions noted are these: oral, Dog Other, clinical chemistry.
A further series relates to Apis mellifera. The conditions noted are these: acute, duration: 48 hours, mortality.

Regarding `CCS(=O)(=O)c1nc2ccccn2c1S(=O)(=O)NC(=O)Nc1nc(OC)cc(OC)n1` [Sulfosulfuron], the LR50 with Aphidius rhopalosiphi is over 29.7 g/ha. Also, the results for the LC50 with Tagia sp. and in the series with Cyprinus carpio were over 848 mg/kg and over 91 µg/mL, respectively. The figures for the NOEC in the series with Oncorhynchus mykiss and with Daphnia magna were 100 mg/L and 102 mg/L, respectively. This compound registered an NOEL in the series with Anas platyrhynchos (reproductive) of 33.7 mg/kg-day. Besides, the LD50 in the series on Anas platyrhynchos (short-term, mortality) was over 1350 mg/kg-day; with Colinus virginianus, over 2250 mg/kg-day; with Rattus norvegicus (acute, oral, mortality), over 5000 mg/kg-day; in the series with Apis mellifera (dermal), over 25 µg/piece; in the series with Apis mellifera (oral, unspecified), over 30 µg/piece. The NOAEL with Rattus norvegicus (chronic, duration: 2 years, histopathology: nonneoplastic) worked out at 24.4 mg/kg-day; in the series with Rattus norvegicus (reproduction developmental, duration: 22 months, oral, diet, body weight), 312 mg/kg-day; with Canidae (chronic, duration: 1 years), 100 mg/kg-day; in the series on Canidae (subchronic, duration: 90 days), 100 mg/kg-day.
